Results taken from paper PMC13672995, “NCR13 peptide protects soybean against Cercospora sojina using multi-faceted modes of action and additive interaction with chemical fungicides” (Journal of Experimental Botany, 2025).
Where no end group is shown, it is not given here.

Legend:
C. sojina conidia = test: ROS measurement with H2DCFDA; format: cell-based, Cercospora sojina; conditions: 1.5 μM peptide, 15 µM H2DCFDA
Protocol: The reactive oxygen species (ROS) indicator dye 2′,7′-dichlorodihydrofluorescein diacetate (H2DCFDA) was used to evaluate ROS induction in C. sojina cells. Cercospora sojina conidia (∼1×10^5 conidia ml^−1) in SFM at various concentrations of iron (FeSO4) were mixed with 15 µM H2DCFDA amd 1.5 µM NCR13_PFV1, and the fluorescence measurements were taken in a Tecan plate reader M200 PRO at excitation and emission wavelengths of 485 nm and 535 nm, respectively, every 30 min for 15 h. ROS induction in C. sojina was visualized using time-lapse confocal microscopy (×63 water immersion objective lens, HC PL Apochromat CS2). The C. sojina conidia grown for 4–5 h in SFM at various concentrations of iron were treated with 15 µM H2DCFDA and 1.5 µM DyLight550-NCR13_PFV1 followed by acquisition of z-stacks using a Leica SP8-X confocal microscope. The excitation and emission wavelengths of DyLight550-NCR13_PFV1 and H2DCFDA were 560 nm, 575–650 nm, and 485 nm, 500–540 nm, respectively.

[1] = tested on: soybean cv. Blackhawk plants; conditions: 48 µM spray
Protocol: To test the potential phytotoxicity of NCR13_PFV1 spray on soybean plants, 48 µM NCR13_PFV1 or water was first sprayed on 4-week-old soybean cv. Blackhawk plants (2 ml per plant) followed by biweekly sprays at 5 ml per plant until plants were 10 weeks old. When plants reached 12 weeks, photographs were taken for phenotypic analysis and the plants were allowed to mature. Soybean pods were harvested when the plants were all dry and mature, and the number of pods, 100 seed weight, and total seed weight were determined. At least four plants per treatment were tested.

[2] = tested on: C. sojina QoI fungicide-sensitive isolate Cs320; test: microbe, parasite or virus in culture; format: cell-based, Cercospora sojina; conditions: SFM, ~10^5 conidia ml−1, room temperature, 48 h; resazurin cell viability assay and microscopy
Protocol: (§1) In vitro antifungal activity of AFPs and QoI fungicides was determined using 96-well plate assays as described ([Velivelli et al., 2020]) with slight modifications. Briefly, 2- to 3-week-old C. sojina was used to make a conidial suspension in 2× SFM at the final concentration of ∼10^5 conidia ml^−1. Simultaneously, peptide dilutions (in water) at various concentrations were made. Fungicides were dissolved in 50% acetone and 50% water to make a stock solution of 500 µM, and serial dilutions were made in water as needed. The peptide–conidia or the fungicide–conidia mixture at the ratio of 1:1 (45 µl:45 µl) was added in a 96-well plate and incubated at room temperature for 48 h, after which MICs of the peptides/fungicides were calculated based on microscopy as well as the resazurin cell viability assay ([Velivelli et al., 2020]).

[3] = tested on: C. sojina QoI fungicide-resistant isolate Cs350; format: cell-based, Cercospora sojina
Protocol: as §1

[4] = tested on: C. sojina Cs320 and Cs350 on soybean cv. Blackhawk (FLS); test: Pre- and post-inoculation in planta antifungal assays with fungal DNA qPCR; format: in vivo, Cercospora sojina
Protocol: For both pre- and post-inoculation in planta antifungal activity assays, 2- to 3-week-old soybean plants cv. Blackhawk (FLS susceptible) grown under a16 h light and 8 h dark cycle were used. For pre-inoculation in planta antifungal activity assay, the second or third trifoliate leaves of soybean plants were first sprayed with 1 ml of NCR13_PFV1 peptide (48 µM) on the abaxial leaf surface followed by spray inoculation with 1 ml of conidial suspension (1×10^5 ml^−1) of azoxystrobin-sensitive Cs320 or -resistant Cs350 isolate. For the post-inoculation in planta antifungal activity assay, the second or third trifoliate leaves of soybean were first spray-inoculated with 1 ml of conidial suspension (1×10^5 ml^−1) followed by spray application of 1 ml of NCR13_PFV1 peptide (48 µM) 2 h later. The mock-treated plants were sprayed with water but no peptide. For both pre- and post-inoculation in planta assays, each treatment consisted of at least four plants and the experiments were performed at least twice. The inoculated plants were kept in a growth chamber under a 16 h light and 8 h dark cycle and 90% relative humidity. The FLS symptoms started to appear 7–10 d post-inoculation and disease scoring was done at 14 d. Diseased leaves were excised from the plant, and both white light and CropReporter (Fv/Fm) images were taken to assess the photosynthetic efficiency of the plant. The leaves were also scored based on a 0–5 scale where: 0=healthy leaves with no leaf spots, 1=1–25% leaf area covered with spots, 2=26–50% leaf area covered with spots, 3=slightly yellow leaves with 51–75% leaf area covered with spots, 4=moderately yellow leaves with 76–95% leaf area covered with spots, and 5=whole leaf is yellow or >96% leaf area covered with spots.
Furthermore, DNA was extracted from the excised leaves to quantify the fungal DNA content using quantitative PCR (PCR). […] DNA quantification in terms of fold change was calculated using the ΔΔCt method ([Livak and Schmittgen, 2001]). […]

[5] = Peroxidase assay (TMB substrate); format: biochemical; conditions: heme 5 µM, peptide 5 µM, absorption at 370 nm and 652 nm
Protocol: A Pierce TMB substrate kit (Thermo Scientific) was used to measure the peroxidase activity of heme. In a transparent 96-well plate, 50 µl of TMB substrate and 50 µl of […] were added followed by addition of heme (5 µM) or peptides plus heme (5 µM each). The reaction progression was measured in the Tecan plate reader, by recording UV-vis absorption values at 370 nm and 652 nm for every minute up to 1 h.

TKPCQSDKDCKKFACRKPKVPKCINGFCKCVR (disulfide (positions not given here)) [NCR13_PFV1, chickpea nodule-specific cysteine-rich 32 amino acid peptide, disulfide cross-linking variant 1, expressed in Pichia pastoris]
ROS induction (C. sojina conidia): accumulates ROS | ROS level over time at iron >20 μM (C. sojina conidia; read every 30 min for 15 h): did not increase with time | morphology of sprayed plants (growth rate, height, leaf color) compared with water ([1]; bi-weekly from the fourth to the 10th week, at least four plants): No morphological difference | number of pods, 100 seed weight, total seed yield compared with water ([1]; at maturity, Student’s t-test): no significant differences | MIC (μM) against C. sojina isolates, Fungicide sensitive, Cs320 [2]: 0.75 µM | MIC in SFM without iron ([3]; 0 μM FeSO4, 2 d): 0.75 µM | change of MIC with calcium supplementation ([3]; CaCl2, up to 20 μM): No change in MIC | MIC in SFM with ≥7.5 μM iron ([3]; FeSO4 up to 60 μM, 2 d): 3 µM | change of MIC with manganese supplementation ([3]; MnSO4, various concentrations): No change in MIC | MIC (μM) against C. sojina, Fungicide resistant, Cs350 ([3]; SFM, ~10^5 conidia ml−1, room temperature, 48 h, resazurin cell viability assay and microscopy): 1.5 µM | change of MIC with zinc supplementation ([3]; ZnSO4, various concentrations): No change in MIC | fungal biomass in infected leaves (fungal DNA, qPCR) ([4]; 48 µM spray, Cs320 and Cs350, P-value ≤0.05): significantly reduced biomass | FLS symptoms (disease severity, 0–5 scale) ([4]; 48 µM spray, pre- or post-inoculation (2 h), Cs320 or Cs350, scored at 14 d, Wilcoxon, P-value ≤0.05, n=8, r=2): significantly reduced | concentration giving the best control of FLS symptoms ([4]; preliminary experiments, 12 µM to 48 µM tested): 48 µM | peroxidase activity of heme and FeSO4 in the presence of peptide [5]: not reduced or stopped
